The values that follow come from patent US5863913A, “Aromatic compound and pharmaceutical composition” (Kureha Chemical Industry Co., Ltd., priority 1996, dated 1999).

Data set [1] can be described thus: Oral absorption (amount of compound in rat serum by HPLC, area under curve). The format is in vivo, Sprague-Dawley female rats. The note with it: single dosage 160 mg/kg in water, 0.5 to 24 hours, average of 3 rats. The protocol: Twelve-week-old Sprague-Dawley female rats (3 rats per group) were bred for acclimation for a week. Then, the compounds of the present invention and a reference substrate were dissolved in water, and orally administered to the rats in a single dosage (160 mg/kg). After 0.5 hour, 1 hour, 2 hours, 4 hours, 6 hours, 8 hours, and 24 hours, the amounts of each compound (ng) per 1 ml of serum were measured using HPLC. Curves were obtained from the relation between an elapsed time after administration and the amount of the compound in serum at each elapsed time, respectively, and an average of the areas under the curves was calculated.
As a reference substance, Compound No. 184 disclosed in Japanese Unexamined Patent Publication (Kokai) No. 8-48651 was used. Compound No. 184 corresponds to the compound of the formula (I) wherein R^1 =nBu, A=N, Z=C, R^2 =CO, R^3 =NC4 H8 O, R^4 =H, R^5 =Me, and R^6 =Me.

A further data set has as its system ICR female mice. The data set is described as follows: Acute toxicity, single oral dose in mice. To be noted: mouse, in vivo. The protocol:
The aromatic compounds of the formula (I) according to the present invention were orally administered to mice at the dose of 500 mg/kg, but no fatalities were observed over a period of one week.
Five-week-old ICR female mice (5 mice per group) were bred for acclimation for a week. Then, the compounds of the present invention were dissolved in water, and orally administered to the mice in a single dosage (500 mg/kg).

The test system of data set [2] is kidney disease model rats. Put plainly: Action to lower blood pressure in kidney disease model rats (tail cuff). Format: in vivo, Sprague-Dawley female rats. To be noted: systolic, average of 8 rats, 20 mg/kg with drinking water, two days after administration; control 210. The protocol: (§1) The compounds of the present invention and the reference substance were administered with drinking water to kidney disease model rats, and the action of lowering the blood pressure was observed. The kidney disease model rats were prepared by a ligature of branches of renal artery in accordance with a conventional method. Namely, the left hilum renalis of Sprague-Dawley female rats was exposed under anesthesia, and one of four secondary branches of the renal artery was left unligated, while the remaining three branches were ligated, respectively. After a week, the hilum renalis (artery, vein, and ureter) of the right kidney were further ligated to thereby prepare rats whose renal function was lowered to approximately 1/8 of the normal function. Each group consisted of eight rats. The drugs to be tested (20 mg/kg) were administered to each administering group, and only water was administered to a control group. Two days after the administration, the systolic blood pressure was measured by the tail cuff method using a blood pressure measuring apparatus (UR5000; Ueda).

The subject of data set [3] is kidney disease model rats. The data set is described as follows: Renal function indicatory value in kidney disease model rats. The format is in vivo, Sprague-Dawley female rats. To be noted: 20 mg/kg/day with drinking water, six weeks; for Creatinine clearance: 24 hours urine, control 0.22; for Creatinine / Blood urea nitrogen: serum; for Creatinine: control 2.0; for Blood urea nitrogen: control 100. The method, then: as §1, with “The” for “The compounds of the present invention and the reference substance were administered with drinking water to kidney disease model rats, and the action of lowering the blood pressure was observed. The”
The rats in each group were allowed to freely take up food. […] To the rats in the control group, only water was administered every day. After six weeks, 0.2 ml of blood was collected from the carotid artery of the rats under anesthesia, and centrifuged to obtain serum. Using 25 μl of the serum, the serum creatinine (Scr) was measured by a creatinine analytical instrument (Beckman). Using 10 μl of the serum, the blood urea nitrogen (BUN) was measured by a BUN analytical instrument (Beckman). The creatinine clearance was evaluated as follows:
After the serum creatinine measurement, rats were placed in urinary metabolic cages for 24 hours to collect urine. A urinary creatine concentration (Ucr) was measured by a creatinine analytical instrument, and a total volume of urination (Uvol) was also measured. The creatinine clearance (CCr) was calculated by the following formula: [formula]

Data set [4] has as its system kidney disease model rats. Put plainly: Survival time of kidney diseased animals. Format: in vivo, Sprague-Dawley female rats. The note with it: 20 mg/kg/day with drinking water, observation period eight weeks (upper limit); control 5.0. The protocol:
as §1
The kidney disease model rats were prepared as in Example 54. Twenty-two groups (8 rats per group) were prepared in a manner such that there was no major difference between the groups in the serum creatinine value and the blood urea nitrogen value indicating renal function. The rats in each group were allowed to freely take up food. […] To the rats in the control group, only water was administered every day. If kidney diseases are aggravated, the rat will die of uremia. Thus, the survival time was observed as a comprehensive indication of the improvement of the effect on the kidney diseases. The observation period was eight weeks. Thus if all rats survived, the average survival time is eight weeks, and is an upper limit.

Usually AUC stands for the area under the concentration-time curve, a measure of exposure. `CCCCC(=O)N(Cc1ccc(C(=O)OCCN(C)C)cc1)c1cc(C(=O)N2CCOCC2)ccc1N(C)C` [Compound No. 1, 4-dimethylamino-3-N-[[[4-(2'-dimethylaminoethoxycarbonyl)phenyl]methyl]valeramido]benzoic acid morpholide] had an AUC at 24 h in data set [1] of 13900 ng·h/mL. In addition, the “Number of deaths/number of survivals” value in the data set with ICR female mice is 0/5. For the same compound, in data set [2], the “Blood Pressure” value stood at 205 mmHg. In data set [3], this compound yielded a Creatinine clearance of 0.47 mL/min, a Creatinine of 1.2 mg/dL and a Blood urea nitrogen of 62 mg/dL. Besides, the Average survival time in data set [4] amounted to 7.5 weeks.

Consider `CCCCC(=O)N(Cc1ccc(C(=O)OCCCN(C)C)cc1)c1cc(C(=O)N2CCOCC2)ccc1N(C)C` [Compound No. 2, 4-dimethylamino-3-N-[[[4-(3'-dimethylaminopropoxycarbonyl)phenyl]methyl]valeramido]benzoic acid morpholide], for which the AUC at 24 h in data set [1] turned out to be 10700 ng·h/mL. Moreover, the “Number of deaths/number of survivals” value with ICR female mice is 0/5. Also, the “Blood Pressure” value in data set [2] came out at 200 mmHg. In data set [3], this compound showed a Creatinine clearance of 0.33 mL/min, a Creatinine of 1.3 mg/dL and a Blood urea nitrogen of 78 mg/dL. Besides, the Average survival time in data set [4] was determined as 6.9 weeks.

`CCCCC(=O)N(Cc1ccc(C(=O)OCCCN)cc1)c1cc(C(=O)N2CCOCC2)ccc1N(C)C` [Compound No. 3, 3-N-[[[4-(3'-aminopropoxycarbonyl)phenyl]methyl]valeramido]-4-dimethylaminobenzoic acid morpholide]: the AUC at 24 h in data set [1] is 9530 ng·h/mL. Further, the “Number of deaths/number of survivals” value in the data set with ICR female mice was 0/5. In data set [2], the “Blood Pressure” value was 203 mmHg. For the same compound, in data set [3], the Creatinine clearance is 0.33 mL/min, the Creatinine was found to be 1.3 mg/dL and the Blood urea nitrogen turned out to be 78 mg/dL. In addition, the Average survival time in data set [4] came to 6.9 weeks.

The compound `CCCCC(=O)N(Cc1ccc(C(=O)OCCN(C)C)cc1)c1cc(C(=O)N2CCOCC2)ccc1C(C)C` [Compound No. 6, 3-N-[[[4-(2'-dimethylaminoethoxycarbonyl)phenyl]methyl]valeramido]-4-i-propylbenzoic acid morpholide] came in with an AUC at 24 h in data set [1] of 34700 ng·h/mL. In addition, the “Number of deaths/number of survivals” value in the data set with ICR female mice is 0/5. For the same compound, the “Blood Pressure” value in data set [2] is 209 mmHg. In data set [3], this compound returned a Creatinine clearance of 0.33 mL/min, a Creatinine of 1.3 mg/dL and a Blood urea nitrogen of 75 mg/dL. In data set [4], this compound gave an Average survival time of 7.0 weeks.

`CCCCC(=O)N(Cc1ccc(C(=O)OCCCN(C)C)cc1)c1cc(C(=O)N2CCOCC2)ccc1C(C)C` [Compound No. 7, 3-N-[[[4-(3'-dimethylamino-1'-propoxycarbonyl)phenyl]methyl]valeramido]-4-i-propylbenzoic acid morpholide]: the exposure (AUC) at 24 h in data set [1] amounted to 14000 ng·h/mL. For the same compound, in the data set with ICR female mice, the “Number of deaths/number of survivals” value is 0/5. Also, in data set [2], the “Blood Pressure” value stood at 206 mmHg. In data set [3], this compound registered a Creatinine clearance of 0.32 mL/min, a Creatinine of 1.4 mg/dL and a Blood urea nitrogen of 76 mg/dL. Also, in data set [4], the Average survival time is listed as 6.9 weeks.

In data set [1], `CCCCC(=O)N(Cc1ccc(C(=O)OCCN(CC)CC)cc1)c1cc(C(=O)N2CCOCC2)ccc1C(C)C` [Compound No. 8, 3-N-[[[4-(2'-diethylaminoethoxycarbonyl)phenyl]methyl]valeramido]-4-i-propylbenzoic acid morpholide] showed an AUC at 24 h of 24600 ng·h/mL. Further, the “Number of deaths/number of survivals” value in the data set on ICR female mice was 0/5. Also, in data set [2], the “Blood Pressure” value is on record as 203 mmHg. In data set [3], this compound came in with a Creatinine clearance of 0.35 mL/min, a Creatinine of 1.5 mg/dL and a Blood urea nitrogen of 78 mg/dL. Besides, in data set [4], the Average survival time is recorded as 6.9 weeks.
